Assay results taken from publication PMC7162861, “Synthesis, cytotoxicity, pharmacokinetic profile, binding with DNA and BSA of new imidazo[1,2-a]pyrazine-benzo[d]imidazol-5-yl hybrids” (Scientific Reports, 2020).

Tests used:
A549/ATCC = test: NCI cytotoxicity screen, Non-Small Cell Lung Cancer panel; type: cell-based; settings: Homo sapiens; A549/ATCC; single dose 10 µM; negative = lethal; read-out: Percent growth inhibition
Protocol: (§1) Cytotoxicity was performed at National Cancer Institute (NCI), Bethesda, USA as per their protocols.

EXVX = test: as above; type: cell-based; settings: Homo sapiens; EXVX; single dose 10 µM; negative = lethal; read-out: Percent growth inhibition
Protocol: as §1

HOP-62 = test: as above; type: cell-based; settings: Homo sapiens, single dose 10 µM, negative = lethal, read-out: Percent growth inhibition
Protocol: as §1

NCI-H460 = test: as above; type: cell-based; settings: Homo sapiens, single dose 10 µM, negative = lethal, read-out: Percent growth inhibition
Protocol: as §1

COLO 205 = test: NCI cytotoxicity screen, Colon Cancer panel; type: cell-based; settings: Homo sapiens, single dose 10 µM, negative = lethal, read-out: Percent growth inhibition
Protocol: as §1

HCT-15 = test: NCI cytotoxicity screen, Colon Cancer panel; type: cell-based; settings: Homo sapiens, single dose 10 µM, negative = lethal, read-out: Percent growth inhibition
Protocol: as §1

HCC-2998 = test: NCI cytotoxicity screen, Colon Cancer panel; type: cell-based, human; settings: Homo sapiens; HCC-2998; single dose 10 µM; negative = lethal; read-out: Percent growth inhibition
Protocol: as §1

KM12 = test: NCI cytotoxicity screen, Colon Cancer panel; type: cell-based, human; settings: Homo sapiens, single dose 10 µM, negative = lethal, read-out: Percent growth inhibition
Protocol: as §1

SW-620 = test: NCI cytotoxicity screen, Colon Cancer panel; type: cell-based, human; settings: Homo sapiens, single dose 10 µM, negative = lethal, read-out: Percent growth inhibition
Protocol: as §1

SF-268 = test: NCI cytotoxicity screen, CNS Cancer panel; type: cell-based; settings: Homo sapiens, single dose 10 µM, negative = lethal, read-out: Percent growth inhibition
Protocol: as §1

SF-295 = test: NCI cytotoxicity screen, CNS Cancer panel; type: cell-based; settings: Homo sapiens, single dose 10 µM, negative = lethal, read-out: Percent growth inhibition
Protocol: as §1

SF-539 = test: NCI cytotoxicity screen, CNS Cancer panel; type: cell-based; settings: Homo sapiens, single dose 10 µM, negative = lethal, read-out: Percent growth inhibition
Protocol: as §1

SNB-19 = test: NCI cytotoxicity screen, CNS Cancer panel; type: cell-based; settings: Homo sapiens; SNB-19; single dose 10 µM; negative = lethal; read-out: Percent growth inhibition
Protocol: as §1

SNB-75 = test: NCI cytotoxicity screen, CNS Cancer panel; type: cell-based; settings: Homo sapiens, single dose 10 µM, negative = lethal, read-out: Percent growth inhibition
Protocol: as §1

U251 = test: NCI cytotoxicity screen, CNS Cancer panel; type: cell-based; settings: Homo sapiens, U-251; U251; single dose 10 µM; negative = lethal; read-out: Percent growth inhibition
Protocol: as §1

LOX IMVI = test: NCI cytotoxicity screen, Melanoma panel; type: cell-based, human; settings: Homo sapiens, single dose 10 µM, negative = lethal, read-out: Percent growth inhibition
Protocol: as §1

M14 = test: NCI cytotoxicity screen, Melanoma panel; type: cell-based, human; settings: Homo sapiens, single dose 10 µM, negative = lethal, read-out: Percent growth inhibition
Protocol: as §1

UACC-62 = test: NCI cytotoxicity screen, Melanoma panel; type: cell-based, human; settings: Homo sapiens, single dose 10 µM, negative = lethal, read-out: Percent growth inhibition
Protocol: as §1

MALME-3M = test: NCI cytotoxicity screen, Melanoma panel; type: cell-based; settings: Homo sapiens; MALME-3M; single dose 10 µM; negative = lethal; read-out: Percent growth inhibition
Protocol: as §1

MDA-MB-435 = test: NCI cytotoxicity screen, Melanoma panel; type: cell-based; settings: Homo sapiens, MDA-MB-435, read-out: Percent growth inhibition
Protocol: as §1

SK-MEL-28 = test: NCI cytotoxicity screen, Melanoma panel; type: cell-based; settings: Homo sapiens, single dose 10 µM, negative = lethal, read-out: Percent growth inhibition
Protocol: as §1

SK-MEL-2 = test: NCI cytotoxicity screen, Melanoma panel; type: cell-based; settings: Homo sapiens, single dose 10 µM, negative = lethal, read-out: Percent growth inhibition
Protocol: as §1

SK-MEL-5 = test: NCI cytotoxicity screen, Melanoma panel; type: cell-based; settings: Homo sapiens, single dose 10 µM, negative = lethal, read-out: Percent growth inhibition
Protocol: as §1

UACC-257 = test: NCI cytotoxicity screen, Melanoma panel; type: cell-based; settings: Homo sapiens, single dose 10 µM, negative = lethal, read-out: Percent growth inhibition
Protocol: as §1

IGROV1 = test: NCI cytotoxicity screen, Ovarian Cancer panel; type: cell-based; settings: Homo sapiens, IGROV-1, single dose 10 µM, negative = lethal, read-out: Percent growth inhibition
Protocol: as §1

NCI/ADR-RES = test: NCI cytotoxicity screen, Ovarian Cancer panel; type: cell-based; settings: Homo sapiens, single dose 10 µM, negative = lethal, read-out: Percent growth inhibition
Protocol: as §1

OVCAR-4 = test: NCI cytotoxicity screen, Ovarian Cancer panel; type: cell-based; settings: Homo sapiens; OVCAR-4; single dose 10 µM; negative = lethal; read-out: Percent growth inhibition
Protocol: as §1

OVCAR-5 = test: NCI cytotoxicity screen, Ovarian Cancer panel; type: cell-based; settings: Homo sapiens, single dose 10 µM, negative = lethal, read-out: Percent growth inhibition
Protocol: as §1

OVCAR-8 = test: NCI cytotoxicity screen, Ovarian Cancer panel; type: cell-based; settings: Homo sapiens, single dose 10 µM, negative = lethal, read-out: Percent growth inhibition
Protocol: as §1

SK-OV-3 = test: NCI cytotoxicity screen, Ovarian Cancer panel; type: cell-based; settings: Homo sapiens, single dose 10 µM, negative = lethal, read-out: Percent growth inhibition
Protocol: as §1

OVCAR-3 = test: NCI cytotoxicity screen, Ovarian Cancer panel; type: cell-based, human; settings: Homo sapiens; OVCAR-3; single dose 10 µM; negative = lethal; read-out: Percent growth inhibition
Protocol: as §1

786-0 = test: NCI cytotoxicity screen, Renal Cancer panel; type: cell-based, human; settings: Homo sapiens, single dose 10 µM, negative = lethal, read-out: Percent growth inhibition
Protocol: as §1

TK-10 = test: NCI cytotoxicity screen, Renal Cancer panel; type: cell-based, human; settings: Homo sapiens, single dose 10 µM, negative = lethal, read-out: Percent growth inhibition
Protocol: as §1

A498 = test: NCI cytotoxicity screen, Renal Cancer panel; type: cell-based; settings: Homo sapiens, single dose 10 µM, negative = lethal, read-out: Percent growth inhibition
Protocol: as §1

ACHN = test: NCI cytotoxicity screen, Renal Cancer panel; type: cell-based; settings: Homo sapiens, single dose 10 µM, negative = lethal, read-out: Percent growth inhibition
Protocol: as §1

CAKI-1 = test: NCI cytotoxicity screen, Renal Cancer panel; type: cell-based; settings: Homo sapiens; CAKI-1; single dose 10 µM; negative = lethal; read-out: Percent growth inhibition
Protocol: as §1

RXF 393 = test: NCI cytotoxicity screen, Renal Cancer panel; type: cell-based; settings: Homo sapiens, single dose 10 µM, negative = lethal, read-out: Percent growth inhibition
Protocol: as §1

SN12C = test: NCI cytotoxicity screen, Renal Cancer panel; type: cell-based; settings: Homo sapiens, single dose 10 µM, negative = lethal, read-out: Percent growth inhibition
Protocol: as §1

UO-31 = test: NCI cytotoxicity screen, Renal Cancer panel; type: cell-based; settings: Homo sapiens, single dose 10 µM, negative = lethal, read-out: Percent growth inhibition
Protocol: as §1

DU-145 = test: NCI cytotoxicity screen, Prostate Cancer panel; type: cell-based, human; settings: Homo sapiens, single dose 10 µM, negative = lethal, read-out: Percent growth inhibition
Protocol: as §1

PC-3 = test: NCI cytotoxicity screen, Prostate Cancer panel; type: cell-based, human; settings: Homo sapiens, single dose 10 µM, negative = lethal, read-out: Percent growth inhibition
Protocol: as §1

[1] = Experimental log P, shake-flask method; type: physicochemical; settings: n-octanol/phosphate buffer pH 7.4, read-out: Exp. Log P
Protocol: Partition coefficients or experimental log P values of all synthesized compounds (9–23, 30 and 31) were calculated using the shake-flask method. Log P values were determined using n-octanol and phosphate buffer (pH = 7.4) at 10:1 ratio of volumes. Stock solutions (10^−3 M) of compounds were prepared in DMSO. Glass vials were used to make final solutions i.e. stock solution (250 µL) and phosphate buffer (125 µL). To record the absorbance, wavelength was selected based on λmax of the respective compound. Initial absorbance (Ai) for every compound was noted consuming the stock solution in the buffer phase. Now added n-octanol to every vial and shaken well using a mechanical shaker for 50 minutes. To get separation of both phases, glass vials were centrifuged for 35 min. at 2500 rpm. Then, the layer of octanol was separated from glass vial. The final absorbance (Af) of each compound was recorded by using the buffer layer. The values of P for compounds were determined by the following equation (Eq. 8):8 P=Ai−Af/Af×Vw/Vo

c1ccc2c(-c3cn4ccnc4c(-c4ccc5c(c4)ncn5C4CCCCC4)n3)cccc2c1 [Compound 12, 8-(1-cyclohexyl-1H-benzo[d]imidazol-5-yl)-6-(naphthalen-1-yl)imidazo[1,2-a]pyrazine]
inhibition at 10 µM (A549/ATCC): 36.2% | inhibition at 10 µM (EXVX): 29.6% | inhibition at 10 µM (HOP-62): 13.2% | inhibition at 10 µM (NCI-H460): 7.35% | inhibition at 10 µM (COLO 205): < 1% | inhibition at 10 µM (HCT-15): 15.3% | inhibition at 10 µM (HCC-2998): < 1% | inhibition at 10 µM (KM12): 8.69% | inhibition at 10 µM (SW-620): 1.43% | inhibition at 10 µM (SF-268): 11.8% | inhibition at 10 µM (SF-295): 7.88% | inhibition at 10 µM (SF-539): 7.72% | inhibition at 10 µM (SNB-19): 16.7% | inhibition at 10 µM (SNB-75): 9.15% | inhibition at 10 µM (U251): 27.9% | inhibition at 10 µM (LOX IMVI): 11.4% | inhibition at 10 µM (M14): 0.39% | inhibition at 10 µM (UACC-62): 21% | inhibition at 10 µM (MALME-3M): < 1% | inhibition at 10 µM (MDA-MB-435): 4.07% | inhibition at 10 µM (SK-MEL-28): < 1% | inhibition at 10 µM (SK-MEL-2): 20.6% | inhibition at 10 µM (SK-MEL-5): 2.13% | inhibition at 10 µM (UACC-257): 35.5% | inhibition at 10 µM (IGROV1): 3.68% | inhibition at 10 µM (NCI/ADR-RES): 11.8% | inhibition at 10 µM (OVCAR-4): 15% | inhibition at 10 µM (OVCAR-5): < 1% | inhibition at 10 µM (OVCAR-8): 24% | inhibition at 10 µM (SK-OV-3): < 1% | inhibition at 10 µM (OVCAR-3): 4.29% | inhibition at 10 µM (786-0): 13.3% | inhibition at 10 µM (TK-10): 5.82% | inhibition at 10 µM (A498): < 1% | inhibition at 10 µM (ACHN): 8.22% | inhibition at 10 µM (CAKI-1): 20.7% | inhibition at 10 µM (RXF 393): 0.15% | inhibition at 10 µM (SN12C): 13.6% | inhibition at 10 µM (UO-31): 37.9% | inhibition at 10 µM (DU-145): 6.09% | inhibition at 10 µM (PC-3): 13.3% | logP [1]: 1.48 | melting point: 199 to 202 °C
